Assay results from patent publication US8846935B2, “Indazoles” (GlaxoSmithKline LLC, priority 2010, dated 2014).
Counter-ions that a name gives are not always drawn.

These molecules were tested against T1, EZH2 within the PRC2 complex (Homo sapiens, UniProt Q15910) (assay: EZH2 methyltransferase scintillation proximity assay (SPA)). Settings: methyltransferase activity of EZH2 in human PRC2 complex, 3H-SAM, HeLa mononucleosomes.
T1 construct: FLAG; made in house; host or cells: Sf9 cells
Type: biochemical
Experimental: Compounds contained herein were evaluated for their ability to inhibit the methyltransferase activity of EZH2 within the PRC2 complex. Human PRC2 complex was prepared by co-expressing each of the 5 member proteins (FLAG-EZH2, EED, SUZ12, RbAp48, AEBP2) in Sf9 cells followed by co-purification. Enzyme activity was measured in a scintillation proximity assay (SPA) where a tritiated methyl group is transferred from 3H-SAM to a lysine residue on Histone H3 of a mononucleosome, purified from HeLa cells. Mononucleosomes were captured on SPA beads and the resulting signal is read on a ViewLux plate reader.
Part A. Compound Preparation
• 1. Prepare 10 mM stock of compounds from solid in 100% DMSO. • 2. Set up an 11-point serial dilution (1:3 dilution, top concentration 10 mM) in 100% DMSO for each test compound in a 384 well plate leaving columns 6 and 18 for DMSO controls. • 3. Dispense 100 nL of compound from the dilution plate into reaction plates (Grenier Bio-One, 384-well, Cat#784075). Part B. Reagent Preparation Prepare the following solutions: • 1. 50 mM Tris-HCl, pH 8: Per 1 L of base buffer, combine 1 M Tris-HCl, pH 8 (50 mL) and distilled water (950 mL). • 2. 1× Assay Buffer: Per 10 mL of 1× Assay Buffer, combine 50 mM Tris-HCl, pH 8 (9958 uL), 1 M MgCl2 (20 uL), 2 M DTT (20 uL), and 10% Tween-20 (2 uL) to provide a final concentration of 50 mM Tris-HCl, pH 8, 2 mM MgCl2, 4 mM DTT, 0.002% Tween-20. • 3. 2× Enzyme Solution: Per 10 mL of 2× Enzyme Solution, combine 1× Assay Buffer and PRC2 complex to provide a final enzyme concentration of 10 nM. • 4. SPA Bead Suspension: Per 1 mL of SPA Bead Suspension, combine PS-PEI coated LEADSeeker beads (40 mg) and ddH2O (1 mL) to provide a final concentration of 40 mg/mL. • 5. 2× Substrate Solution: Per 10 mL of 2× Substrate Solution, combine 1× Assay Buffer (9728.55 uL), 800 ug/mL mononucleosomes (125 uL), 1 mM cold SAM (4 uL), and 7.02 uM 3H-SAM (142.45 uL; 0.55 mCi/mL) to provide a final concentration of 5 ug/mL nucleosomes, 0.2 uM cold SAM, and 0.05 uM 3H-SAM. • 6. 2.67× Quench/Bead Mixture: Per 10 mL of 2.67× Quench/Bead Mixture, combine ddH2O (9358 uL), 10 mM cold SAM (267 uL), 40 mg/mL Bead Suspension (375 uL) to provide a final concentration of 100 uM cold SAM and 0.5 mg/mL SPA beads. Part C. Assay Reaction in 384-well Grenier Bio-One Plates Compound Addition • 1. Dispense […] of 100× Compound to test wells (as noted above). • 2. Dispense […] of 100% DMSO to columns 6 & 18 for high and low controls, respectively. Assay • 1. Dispense 5 uL/well of 1× Assay Buffer to column 18 (low control reactions). • 2. Dispense 5 uL/well of 2× Enzyme Solution to columns 1-17, 19-24. • 3. Spin assay plates for ˜1 minute at 500 rpm. • 4. Stack the assay plates, covering the top plate. • 5. Incubate the compound/DMSO with the enzyme for 30 minutes at room temperature. • 6. Dispense 5 uL/well of 2× Substrate Solution to columns 1-24. • 7. Spin assay plates for ˜1 minute at 500 rpm. • 8. Stack the assay plates, covering the top plate. • 9. Incubate the assay plates at room temperature for 1 hour. Quench/Bead Addition • 1. Dispense 5 uL/well of the 3× Quench/Bead Mixture to columns 1-24. • 2. Seal the top of each assay plate with adhesive TopSeal. • 3. Spin assay plates for ˜1 minute at 500 rpm. • 4. Equilibrate the plates for >20 min. Read Plates • 1. Read the assay plates on the Viewlux Plate Reader utilizing the 613 nm emission filter with a 300 s read time. Reagent addition can be done manually or with automated liquid handler. *The final DMSO concentration in this assay is 1%. *The positive control is in column 6; negative control is in column 18. *Final starting concentration of compounds is 100 μM. Part D. Data Analysis
Percent inhibition was calculated relative to the DMSO control for each compound concentration and the resulting values were fit using standard IC50 fitting parameters within the ABASE data fitting software package.

T1 sequence (Q15910 whole entry): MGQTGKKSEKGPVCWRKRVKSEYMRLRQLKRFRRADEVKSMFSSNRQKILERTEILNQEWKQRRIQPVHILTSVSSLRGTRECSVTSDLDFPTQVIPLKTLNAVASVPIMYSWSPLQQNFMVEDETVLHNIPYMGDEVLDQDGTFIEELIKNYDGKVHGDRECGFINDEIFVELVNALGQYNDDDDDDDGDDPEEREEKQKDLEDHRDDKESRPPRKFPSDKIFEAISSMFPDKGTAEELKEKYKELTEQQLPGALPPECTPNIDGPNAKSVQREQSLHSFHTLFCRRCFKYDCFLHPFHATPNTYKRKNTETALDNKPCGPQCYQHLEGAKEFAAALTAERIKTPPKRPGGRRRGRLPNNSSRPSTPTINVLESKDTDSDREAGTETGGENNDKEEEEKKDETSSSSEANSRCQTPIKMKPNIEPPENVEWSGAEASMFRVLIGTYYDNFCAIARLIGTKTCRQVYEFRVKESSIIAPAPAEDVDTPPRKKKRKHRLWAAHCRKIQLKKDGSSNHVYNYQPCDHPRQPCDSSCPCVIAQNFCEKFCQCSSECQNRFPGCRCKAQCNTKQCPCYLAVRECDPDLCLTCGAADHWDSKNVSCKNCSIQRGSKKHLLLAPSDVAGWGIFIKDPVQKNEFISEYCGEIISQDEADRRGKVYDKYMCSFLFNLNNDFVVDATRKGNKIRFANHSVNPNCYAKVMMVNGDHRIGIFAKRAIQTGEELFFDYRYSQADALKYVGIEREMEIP
T1 sequence (O75530 whole entry partner): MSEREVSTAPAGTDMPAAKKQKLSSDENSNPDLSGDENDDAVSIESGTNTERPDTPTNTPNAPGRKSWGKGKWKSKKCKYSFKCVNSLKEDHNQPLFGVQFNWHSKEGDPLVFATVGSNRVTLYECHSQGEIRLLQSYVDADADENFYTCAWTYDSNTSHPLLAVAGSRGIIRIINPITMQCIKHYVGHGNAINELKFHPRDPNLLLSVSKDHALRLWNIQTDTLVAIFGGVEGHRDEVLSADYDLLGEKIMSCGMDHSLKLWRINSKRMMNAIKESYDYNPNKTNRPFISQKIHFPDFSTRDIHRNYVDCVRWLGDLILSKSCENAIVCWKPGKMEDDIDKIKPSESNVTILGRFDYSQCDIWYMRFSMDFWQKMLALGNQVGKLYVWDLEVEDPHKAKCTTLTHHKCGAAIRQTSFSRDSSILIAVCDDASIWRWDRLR
T1 sequence (Q15022 whole entry partner): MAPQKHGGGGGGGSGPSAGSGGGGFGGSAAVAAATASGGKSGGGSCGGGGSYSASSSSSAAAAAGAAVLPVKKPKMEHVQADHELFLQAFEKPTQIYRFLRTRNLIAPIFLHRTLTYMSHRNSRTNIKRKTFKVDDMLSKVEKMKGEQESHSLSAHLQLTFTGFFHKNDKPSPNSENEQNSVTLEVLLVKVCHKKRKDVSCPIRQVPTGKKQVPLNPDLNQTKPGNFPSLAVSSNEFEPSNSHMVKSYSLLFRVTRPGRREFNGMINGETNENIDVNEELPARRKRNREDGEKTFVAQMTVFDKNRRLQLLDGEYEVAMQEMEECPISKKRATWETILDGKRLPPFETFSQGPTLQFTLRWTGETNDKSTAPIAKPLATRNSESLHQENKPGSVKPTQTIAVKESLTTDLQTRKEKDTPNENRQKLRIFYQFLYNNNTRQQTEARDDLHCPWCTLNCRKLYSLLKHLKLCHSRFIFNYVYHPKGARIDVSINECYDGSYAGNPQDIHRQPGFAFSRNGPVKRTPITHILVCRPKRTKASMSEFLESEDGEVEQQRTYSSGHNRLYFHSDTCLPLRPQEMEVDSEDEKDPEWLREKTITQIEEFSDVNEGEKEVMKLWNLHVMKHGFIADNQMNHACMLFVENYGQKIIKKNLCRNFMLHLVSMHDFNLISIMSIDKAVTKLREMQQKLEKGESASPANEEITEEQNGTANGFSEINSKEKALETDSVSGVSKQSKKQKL
T1 sequence (Q09028 whole entry partner): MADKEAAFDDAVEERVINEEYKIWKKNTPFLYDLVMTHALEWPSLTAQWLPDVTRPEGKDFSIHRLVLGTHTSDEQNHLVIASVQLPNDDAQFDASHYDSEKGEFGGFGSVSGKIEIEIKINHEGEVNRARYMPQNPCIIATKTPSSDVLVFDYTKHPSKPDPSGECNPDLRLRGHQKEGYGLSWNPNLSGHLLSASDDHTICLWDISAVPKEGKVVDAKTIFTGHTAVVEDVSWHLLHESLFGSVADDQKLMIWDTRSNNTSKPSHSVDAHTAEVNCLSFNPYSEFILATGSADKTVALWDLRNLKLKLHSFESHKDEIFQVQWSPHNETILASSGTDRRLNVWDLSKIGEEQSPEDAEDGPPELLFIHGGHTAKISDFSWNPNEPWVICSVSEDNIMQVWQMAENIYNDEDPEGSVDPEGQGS
T1 sequence (Q6ZN18 whole entry partner): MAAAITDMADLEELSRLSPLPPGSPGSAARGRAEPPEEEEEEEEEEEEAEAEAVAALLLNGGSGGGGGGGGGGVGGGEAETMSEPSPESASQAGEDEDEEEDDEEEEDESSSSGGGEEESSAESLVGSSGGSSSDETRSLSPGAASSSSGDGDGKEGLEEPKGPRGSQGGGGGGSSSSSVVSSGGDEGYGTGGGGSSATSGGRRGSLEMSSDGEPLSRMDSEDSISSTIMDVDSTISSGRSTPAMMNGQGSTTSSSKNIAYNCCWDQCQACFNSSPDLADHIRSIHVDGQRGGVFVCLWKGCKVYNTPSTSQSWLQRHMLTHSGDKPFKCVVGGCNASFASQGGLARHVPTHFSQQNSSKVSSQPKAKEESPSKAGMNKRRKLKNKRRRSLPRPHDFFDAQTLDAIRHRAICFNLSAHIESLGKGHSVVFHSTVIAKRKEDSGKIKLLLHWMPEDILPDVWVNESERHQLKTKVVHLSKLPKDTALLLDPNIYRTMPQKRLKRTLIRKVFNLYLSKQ

| Structure (SMILES) | IC50 [nM] |
| --- | --- |
| CCCc1cc(C)[nH]c(=O)c1CNC(=O)c1cc(-c2ccc(N3CCN(C)CC3)nc2)cc2c1cnn2C(C)C [Example 24, 1-(1-methylethyl)-N-[(6-methyl-2-oxo-4-propyl-1,2-dihydro-3-pyridinyl)methyl]-6-[6-(4-methyl-1-piperazinyl)-3-pyridinyl]-1H-indazole-4-carboxamide] | 5 |
| CCCc1cc(C)[nH]c(=O)c1CNC(=O)c1cc(-c2cccnc2C)cc2c1cnn2C(C)C [Example 25, 1-(1-methylethyl)-N-[(6-methyl-2-oxo-4-propyl-1,2-dihydro-3-pyridinyl)methyl]-6-(2-methyl-3-pyridinyl)-1H-indazole-4-carboxamide] | 13 |
| Cc1cc(C)c(CNC(=O)c2cc(-c3ccc(N(C)C)nc3)cc3c2cnn3C(C)C)c(=O)[nH]1 [Example 27, 6-[6-(dimethylamino)-3-pyridinyl]-N-[(4,6-dimethyl-2-oxo-1,2-dihydro-3-pyridinyl)methyl]-1-(1-methylethyl)-1H-indazole-4-carboxamide] | 32 |
| Cc1cc(C)c(CNC(=O)c2cc(-c3cccc(CN(C)C)c3)cc3c2cnn3C(C)C)c(=O)[nH]1 [Example 29, 6-{3-[(dimethylamino)methyl]phenyl}-N-[(4,6-dimethyl-2-oxo-1,2-dihydro-3-pyridinyl)methyl]-1-(1-methylethyl)-1H-indazole-4-carboxamide] | 40 |
| CCCc1cc(C)[nH]c(=O)c1CNC(=O)c1cc(-c2ccsc2)cc2c1cnn2C(C)C [Example 31, N-((1,2-dihydro-6-methyl-2-oxo-4-propylpyridin-3-yl)methyl)-1-isopropyl-6-(thiophen-3-yl)-1H-indazole-4-carboxamide] | 20 |
| CCCc1cc(C)[nH]c(=O)c1CNC(=O)c1cc(-c2ccc(CN(C)C)cc2)cc2c1cnn2C(C)C [Example 33, 6-{4-[(dimethylamino)methyl]phenyl}-1-(1-methylethyl)-N-[(6-methyl-2-oxo-4-propyl-1,2-dihydro-3-pyridinyl)methyl]-1H-indazole-4-carboxamide hydrochloride salt] | 5 |
